{"source": "patent US20040097737A1", "about": "(priority 2001, published 2004)", "tested_on": "patients diagnosed as acute attack of vertigo", "details": "human, in vivo"}
{"smiles": "OC(CCCN1CCCCC1)(c1ccccc1)c1ccccc1", "note": "[Diphenidol]", "values": [{"measurement": "Total effective (patients effective/sample)", "value": "19/28"}, {"measurement": "Total effective percentage", "value": 67.9, "unit": "%"}]}
